Consider two molecules from US12391737B2, “Soluble NPY2 receptor agonists” (Boehringer Ingelheim International GmbH, priority 2020, dated 2025).

In data set [1] the target is T1, Human Neuropeptide Y2 Receptor (Homo sapiens, UniProt P49146).
T1 construct: purchased CHEMICON HTS066M
T1 sequence (P49146 1-381): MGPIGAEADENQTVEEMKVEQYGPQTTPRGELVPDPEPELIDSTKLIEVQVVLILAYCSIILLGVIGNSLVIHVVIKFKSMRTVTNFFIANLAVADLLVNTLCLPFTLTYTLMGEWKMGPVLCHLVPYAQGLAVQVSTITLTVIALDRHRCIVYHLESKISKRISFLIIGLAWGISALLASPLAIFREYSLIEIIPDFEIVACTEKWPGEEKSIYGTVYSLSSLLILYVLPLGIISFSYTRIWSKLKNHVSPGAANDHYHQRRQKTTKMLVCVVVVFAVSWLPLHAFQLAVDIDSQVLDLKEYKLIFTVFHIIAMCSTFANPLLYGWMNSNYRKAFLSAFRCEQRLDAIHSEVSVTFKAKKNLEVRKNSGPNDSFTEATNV
As to the kind of experiment: Radioligand binding competition assay (RLB). The settings on record: Table 3, 125I-PYY(1-36) competition; read-out: Ki. The essentials: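 Competition binding used membranes expressing the receptor (0.5 μg protein/well) in 50 mM HEPES, 5 mM MgCl2, 1 mM CaCl2, pH 7.4 with 0.2% ovalbumin, incubated 2 h at room temperature with shaking. Bound radioligand was collected by filtration onto PEI-soaked GF/C filters and counted; IC50 from nonlinear sigmoidal fits.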

A short description of the next data set: Solubility determination. The following applies: for Sol6: pH 6; for Sol7: pH 7. The essentials: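 Shake-flask style: 10 mg/ml peptide (TFA salt), 0.1 M sodium diphosphate pH 6.4/7.0, 600 rpm, 2 h, RT; filter; dilute 1 mg/ml in 50% MeCN; RP-UPLC, 0–100% B over 2 min, 50 °C. Solubility = sample/control area ratio. Final pH recorded.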

For orientation: Ki means the equilibrium dissociation constant of an inhibitor or competing ligand from its target. In the case of `CC(C)CC(=O)N[C@@H](C)C(=O)N1CCC[C@H]1C(=O)N[C@@H](CCC(=O)O)C(=O)N[C@@H](CCCCNC(=O)CCCCCNC(=O)CC[C@H](NC(=O)CCCCCCCCCCCCCCCCC(=O)O)C(=O)O)C(=O)N1CCC[C@H]1C(=O)N[C@@H](CCC(=O)O)C(=O)N[C@@H](CCC(=O)O)C(=O)N[C@@H](CC(=O)O)C(=O)N[C@@H](C)C(=O)N[C@H](C(=O)N1CCC[C@H]1C(=O)N[C@@H](CCC(=O)O)C(=O)N[C@@H](CCC(=O)O)C(=O)N[C@@H](CC(C)C)C(=O)N[C@@H](CCC(N)=O)C(=O)N[C@@H](CCCNC(=N)N)C(=O)N[C@@H](CCC(N)=O)C(=O)N[C@@H](Cc1ccc(O)cc1)C(=O)N[C@H](C(=O)N[C@@H](CO)C(=O)N[C@@H](CC(C)C)C(=O)N[C@@H](CCCNC(=N)N)C(=O)N[C@@H](Cc1c[nH]cn1)C(=O)N[C@@H](Cc1ccc(O)cc1)C(=O)N[C@@H](Cc1ccc(O)cc1)C(=O)N[C@@H](CC(N)=O)C(=O)N[C@@H](Cc1c[nH]c2ccccc12)C(=O)N[C@@H](CC(C)C)C(=O)N[C@H](C(=O)N[C@@H](CCCNC(=N)N)C(=O)N[C@@H](CCC(N)=O)C(=O)N[C@@H](CCCNC(=N)N)C(=O)N[C@@H](Cc1ccc(O)cc1)C(N)=O)[C@@H](C)O)C(C)C)[C@@H](C)O` [Compound 88, N{alpha-4}-(3-methylbutanoyl)-N{epsilon-7}-(6-[(4S)-4-carboxy-4-(17-carboxyheptadecanamido)butanamido]hexanoyl)-[4A,7K,9E,13T,18Q,20Q,22V,28Y,30W,31L]-hPYY(4-36)], in data set [1], the inhibitory constant (Ki) came to 16.3 nM. Further, in the data set “Solubility determination”, the “Sol6” value amounted to 8.7 mg/mL and the “Sol7” value worked out at 8.9 mg/mL.

For the molecule `CC(C)CC(=O)N[C@@H](C)C(=O)N1CCC[C@H]1C(=O)N[C@@H](C)C(=O)N[C@@H](CCCCNC(=O)CCCCCNC(=O)CC[C@H](NC(=O)CCCCCCCCCCCCCCCCC(=O)O)C(=O)O)C(=O)N1CCC[C@H]1C(=O)N[C@@H](CCC(=O)O)C(=O)N[C@@H](C)C(=O)N[C@@H](CC(=O)O)C(=O)N[C@@H](C)C(=O)N[C@@H](CO)C(=O)N1CCC[C@H]1C(=O)N[C@@H](CCC(=O)O)C(=O)N[C@@H](CCC(=O)O)C(=O)N[C@@H](CC(C)C)C(=O)N[C@@H](CCC(N)=O)C(=O)N[C@@H](CCCNC(=N)N)C(=O)N[C@@H](Cc1ccc(O)cc1)C(=O)N[C@@H](Cc1ccc(O)cc1)C(=O)N[C@H](C(=O)N[C@@H](CCC(=O)O)C(=O)N[C@@H](CC(C)C)C(=O)N[C@@H](CCCNC(=N)N)C(=O)N[C@@H](Cc1c[nH]cn1)C(=O)N[C@@H](Cc1ccc(O)cc1)C(=O)N[C@@H](Cc1ccc(O)cc1)C(=O)N[C@@H](CC(N)=O)C(=O)N[C@@H](Cc1c[nH]c2ccccc12)C(=O)N[C@@H](CC(C)C)C(=O)N[C@H](C(=O)N[C@@H](CCCNC(=N)N)C(=O)N[C@@H](CCC(N)=O)C(=O)N[C@@H](CCCNC(=N)N)C(=O)N[C@@H](Cc1ccc(O)cc1)C(N)=O)[C@@H](C)O)C(C)C` [Compound 94, N{alpha-4}-(3-methylbutanoyl)-N{epsilon-7}-(6-[(4S)-4-carboxy-4-(17-carboxyheptadecanamido)butanamido]hexanoyl)-[4A,6A,7K,9E,10A,18Q,22V,23E,28Y,30W,31L]-hPYY(4-36)], the Ki in data set [1] turned out to be 0.93 nM. Moreover, in “Solubility determination”, the “Sol6” value stood at 8.4 mg/mL and the “Sol7” value was 8.9 mg/mL.
